Assay results published in patent publication US11414387B2, “Oxoacridinyl acetic acid derivatives and methods of use” (Stingthera, Inc., priority 2017, dated 2022).
One block for each compound: values may come before it.

Legend:
hSTING-WT = hSTING-WT (Homo sapiens (Human), UniProt Q86WV6, H232R); assay: Radiometric filtration binding competition assay, hSTING-WT
STING protein = STING protein (Homo sapiens (Human), UniProt Q86WV6, H232R); assay: Cell based reporter assay of IRF activation (IRF-luciferase), THP1-dual-KI R232; details: read-out: THP1-dual-KI R232_IRF(Luciferase)_Activity Maximum measured (%)
hSTING-R232 = hSTING-R232 (Homo sapiens (Human), UniProt Q86WV6, H232R); assay: STING differential scanning fluorimetry (DSF) assay, WT human STING; details: WT (R232) human STING aa140-379, net shift in melting temperature
mSTING-R232 = mSTING-R232 (Mus musculus, UniProt Q3TBT3); assay: STING differential scanning fluorimetry (DSF) assay, mouse STING; details: net shift in melting temperature
mSTING = mSTING (Mus musculus, UniProt Q3TBT3); assay: Radiometric filtration binding competition assay, mSTING

Sequence of STING protein (Q86WV6 whole entry H232R, the tested form may be a part): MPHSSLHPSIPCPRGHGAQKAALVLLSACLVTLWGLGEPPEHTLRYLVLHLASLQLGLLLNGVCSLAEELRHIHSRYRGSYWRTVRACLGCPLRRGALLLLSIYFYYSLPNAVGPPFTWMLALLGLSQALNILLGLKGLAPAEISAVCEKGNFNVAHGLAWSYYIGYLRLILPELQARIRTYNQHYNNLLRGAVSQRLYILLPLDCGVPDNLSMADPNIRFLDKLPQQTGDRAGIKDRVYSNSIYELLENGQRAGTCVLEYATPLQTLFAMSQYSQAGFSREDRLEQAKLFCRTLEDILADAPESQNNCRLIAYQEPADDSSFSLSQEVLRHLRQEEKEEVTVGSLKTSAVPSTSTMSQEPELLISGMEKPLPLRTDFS
Sequence of hSTING-R232 (Q86WV6 140-379 H232R): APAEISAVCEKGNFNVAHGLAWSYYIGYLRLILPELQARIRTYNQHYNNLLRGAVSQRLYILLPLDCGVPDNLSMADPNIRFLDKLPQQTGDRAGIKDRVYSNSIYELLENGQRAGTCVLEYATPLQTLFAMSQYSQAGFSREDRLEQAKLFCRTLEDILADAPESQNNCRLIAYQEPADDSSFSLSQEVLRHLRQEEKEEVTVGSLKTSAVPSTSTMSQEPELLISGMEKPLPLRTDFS
Sequence of hSTING-WT (Q86WV6 140-379 H232R): as above

SMILES: CCc1ccc2c(=O)c3ccc(Cl)c(OC)c3n(CC(=O)O)c2c1 [Compound 294]
IC50 (hSTING-WT): 20 to 100 µM
Emax (STING protein): > 50%
WT_DSF_hSWAT Tm Shift (° C.) (hSTING-R232): D (“D” > 7° C.)
MOUSE DSF_6xHIS-SUMO Tm Shift (° C.) (mSTING-R232): C (“C” = 5-15° C.)
IC50 (mSTING): 20 to 100 µM

SMILES: COc1ccccc1Nc1ccc2c(=O)c3ccc(Cl)c(OC)c3n(CC(=O)O)c2c1 [Compound 298]
IC50 (hSTING-WT): 20 to 100 µM
Emax (STING protein): > 50%
WT_DSF_hSWAT Tm Shift (° C.) (hSTING-R232): D (“D” > 7° C.)
MOUSE DSF_6xHIS-SUMO Tm Shift (° C.) (mSTING-R232): D (“D” > 15° C.)
IC50 (mSTING): < 20 µM

SMILES: CCN(C)c1c(Cl)ccc2c(=O)c3ccc(C)cc3n(CC(=O)O)c12 [Compound 307]
IC50 (hSTING-WT): 20 to 100 µM
Emax (STING protein): > 50%
WT_DSF_hSWAT Tm Shift (° C.) (hSTING-R232): D (“D” > 7° C.)
MOUSE DSF_6xHIS-SUMO Tm Shift (° C.) (mSTING-R232): D (“D” > 15° C.)
IC50 (mSTING): 20 to 100 µM

SMILES: CSc1c(Cl)ccc2c(=O)c3ccc(Br)cc3n(CC(=O)O)c12 [Compound 309]
IC50 (hSTING-WT): 20 to 100 µM
Emax (STING protein): > 50%
WT_DSF_hSWAT Tm Shift (° C.) (hSTING-R232): D (“D” > 7° C.)
MOUSE DSF_6xHIS-SUMO Tm Shift (° C.) (mSTING-R232): C (“C” = 5-15° C.)
IC50 (mSTING): 20 to 100 µM

SMILES: CN(Cc1ccccc1)c1c(Cl)ccc2c(=O)c3ccccc3n(CC(=O)O)c12 [Compound 310]
IC50 (hSTING-WT): 100 to 300 µM
Emax (STING protein): 5 to 25%
WT_DSF_hSWAT Tm Shift (° C.) (hSTING-R232): A (“A” < 0° C.)
MOUSE DSF_6xHIS-SUMO Tm Shift (° C.) (mSTING-R232): A (“A” < 0° C.)
IC50 (mSTING): > 300 µM

SMILES: C=CCOc1c(Cl)ccc2c(=O)c3ccc(C)cc3n(CC(=O)O)c12 [Compound 311]
IC50 (hSTING-WT): 20 to 100 µM
Emax (STING protein): > 50%
WT_DSF_hSWAT Tm Shift (° C.) (hSTING-R232): D (“D” > 7° C.)
MOUSE DSF_6xHIS-SUMO Tm Shift (° C.) (mSTING-R232): C (“C” = 5-15° C.)
IC50 (mSTING): < 20 µM

SMILES: CC(=O)COc1c(Cl)ccc2c(=O)c3ccccc3n(CC(=O)O)c12 [Compound 312]
IC50 (hSTING-WT): > 300 µM
Emax (STING protein): < 5%
WT_DSF_hSWAT Tm Shift (° C.) (hSTING-R232): B (“B” = 0-2° C.)
MOUSE DSF_6xHIS-SUMO Tm Shift (° C.) (mSTING-R232): B (“B” = 0-5° C.)
IC50 (mSTING): > 300 µM

SMILES: COc1c(Cl)cc(O)c2c(=O)c3ccccc3n(CC(=O)O)c12 [Compound 314]
IC50 (hSTING-WT): > 300 µM
Emax (STING protein): > 50%
WT_DSF_hSWAT Tm Shift (° C.) (hSTING-R232): C (“C” = 2-7° C,)
MOUSE DSF_6xHIS-SUMO Tm Shift (° C.) (mSTING-R232): C (“C” = 5-15° C.)
IC50 (mSTING): 100 to 300 µM

SMILES: COc1cc2c(=O)c3ccc(Cl)c(OC)c3n(CC(=O)O)c2cc1C(C)C [Compound 318]
IC50 (hSTING-WT): 100 to 300 µM
Emax (STING protein): 5 to 25%
WT_DSF_hSWAT Tm Shift (° C.) (hSTING-R232): C (“C” = 2-7° C,)
MOUSE DSF_6xHIS-SUMO Tm Shift (° C.) (mSTING-R232): B (“B” = 0-5° C.)
IC50 (mSTING): > 300 µM

Other lines, results leading:

IC50 (hSTING-WT): < 20 µM
Emax (STING protein): > 50%
WT_DSF_hSWAT Tm Shift (° C.) (hSTING-R232): D (“D” > 7° C.)
MOUSE DSF_6xHIS-SUMO Tm Shift (° C.) (mSTING-R232): D (“D” > 15° C.)
IC50 (mSTING): < 20 µM
SMILES: COc1c(Cl)ccc2c(=O)c3ccc(-c4ccc(N)cc4)cc3n(CC(=O)O)c12 [Compound 274]

IC50 (hSTING-WT): < 20 µM
Emax (STING protein): > 50%
WT_DSF_hSWAT Tm Shift (° C.) (hSTING-R232): D (“D” > 7° C.)
MOUSE DSF_6xHIS-SUMO Tm Shift (° C.) (mSTING-R232): D (“D” > 15° C.)
IC50 (mSTING): < 20 µM
SMILES: CCOc1c(Cl)ccc2c(=O)c3ccc(C(C)C)cc3n(CC(=O)O)c12 [Compound 288]

IC50 (hSTING-WT): < 20 µM
Emax (STING protein): > 50%
WT_DSF_hSWAT Tm Shift (° C.) (hSTING-R232): D (“D” > 7° C.)
MOUSE DSF_6xHIS-SUMO Tm Shift (° C.) (mSTING-R232): C (“C” = 5-15° C.)
IC50 (mSTING): < 20 µM
SMILES: CC(C)c1ccc2c(=O)c3ccc(Cl)c(-c4ccccc4)c3n(CC(=O)O)c2c1 [Compound 289]

IC50 (hSTING-WT): < 20 µM
Emax (STING protein): < 5%
WT_DSF_hSWAT Tm Shift (° C.) (hSTING-R232): D (“D” > 7° C.)
MOUSE DSF_6xHIS-SUMO Tm Shift (° C.) (mSTING-R232): D (“D” > 15° C.)
IC50 (mSTING): < 20 µM
SMILES: CSc1c(Cl)ccc2c(=O)c3ccc(Nc4cnccn4)cc3n(CC(=O)O)c12 [Compound 291]

IC50 (hSTING-WT): < 20 µM
Emax (STING protein): > 50%
WT_DSF_hSWAT Tm Shift (° C.) (hSTING-R232): D (“D” > 7° C.)
MOUSE DSF_6xHIS-SUMO Tm Shift (° C.) (mSTING-R232): D (“D” > 15° C.)
IC50 (mSTING): < 20 µM
SMILES: COc1c(Cl)ccc2c(=O)c3ccc(NC4CCC4)cc3n(CC(=O)O)c12 [Compound 292]

IC50 (hSTING-WT): < 20 µM
Emax (STING protein): > 50%
WT_DSF_hSWAT Tm Shift (° C.) (hSTING-R232): D (“D” > 7° C.)
MOUSE DSF_6xHIS-SUMO Tm Shift (° C.) (mSTING-R232): D (“D” > 15° C.)
IC50 (mSTING): < 20 µM
SMILES: COc1c(Cl)ccc2c(=O)c3ccc(NC4CCCC4)cc3n(CC(=O)O)c12 [Compound 293]

IC50 (hSTING-WT): < 20 µM
Emax (STING protein): > 50%
WT_DSF_hSWAT Tm Shift (° C.) (hSTING-R232): D (“D” > 7° C.)
MOUSE DSF_6xHIS-SUMO Tm Shift (° C.) (mSTING-R232): D (“D” > 15° C.)
IC50 (mSTING): < 20 µM
SMILES: COc1c(Cl)ccc2c(=O)c3ccc(Nc4cccc5ccccc45)cc3n(CC(=O)O)c12 [Compound 297]

IC50 (hSTING-WT): < 20 µM
Emax (STING protein): > 50%
WT_DSF_hSWAT Tm Shift (° C.) (hSTING-R232): D (“D” > 7° C.)
MOUSE DSF_6xHIS-SUMO Tm Shift (° C.) (mSTING-R232): D (“D” > 15° C.)
IC50 (mSTING): < 20 µM
SMILES: CCOc1c(Cl)ccc2c(=O)c3ccc(CC)cc3n(CC(=O)O)c12 [Compound 306]

IC50 (hSTING-WT): < 20 µM
Emax (STING protein): > 50%
WT_DSF_hSWAT Tm Shift (° C.) (hSTING-R232): D (“D” > 7° C.)
MOUSE DSF_6xHIS-SUMO Tm Shift (° C.) (mSTING-R232): D (“D” > 15° C.)
IC50 (mSTING): < 20 µM
SMILES: Cc1ccc2c(=O)c3ccc(Cl)c(N(C)C)c3n(CC(=O)O)c2c1 [Compound 308]
